In US20190015312A1, “COSMETIC FORMULATIONS” (KIMBERLY-CLARK WORLDWIDE, INC., priority 2015, published 2019):

Tested on: volunteer human subjects
Experiment: Human clinical anti-perspirant study, gravimetric perspiration on lower back
Assay type: in vivo
Settings: Table D study; Acetyl Hexapeptide-30 and Pentapeptide-18 tested in combination
Procedure: The effectiveness of the peptide material at addressing perspiration was evaluated in a human clinical study. The screening of various potential sweat-reducing materials was determined using at least 20 volunteer human subjects. Twenty-four subjects were planned for enrollment into the study to ensure that 20 subjects completed testing. Baseline screening was performed on up to 40 subjects to ensure a sufficient number of subjects were enrolled in the treatment application phase who met minimum sweat production criteria of 50 mg over a 20-minute collection period. As shown in Table C and Table D, each subject had seven test materials randomly applied to the lower back in 2 inch by 2 inch treatment application areas and one site was left untreated on each subject as a control. The study subjects participated in a 4-day test period consisting of four, supervised treatment applications, spaced 24-hours apart, and one post treatment application sweat collection period 1-hour post-product application on Day 4. The study staff visually assessed the application sites, and applied each of the test materials to the backs of the subjects. […] Subjects were instructed to not leave the room during the approximately 60-minute test period. • Absorbent gauze sponges, 2 inch by 2 inch (two 4-ply sponges, Avant Gauze® Sponges), were applied to the eight sites on the lower back of the subjects. Sponges were occluded on the site using 3MTM BlendermTM Medical Tape, and affixed to the site using Scanpor® Paper Tape. • The sponges remained in place for a 20-minute acclimation period. […] Subjects were not allowed to consume water during this 20-minute period. • Following the 20-minute period, the sponges with the 3MTM BlendermTM Medical Tape were removed and sealed in a bag or container for weighing within 1-hour of removal. • After exiting the temperature-controlled room, the subjects again sat in normal ambient indoor temperature for at least 20-minutes, and trained technicians determined the body temperature, pulse, and blood pressure of each subject. […]

Substance | Activity of the peptide in the presence of a salt based cosmetic astringent, in words
Acetyl Dipeptide-1 Cetyl Ester | high activity
Acetyl Hexapeptide-30 | high activity
Pentapeptide-18 | high activity
